Each compound was assayed on HepG2 (assay: Cytotoxicity against human HepG2 cells by MTT assay).
Assay type: functional, cell-based

| SMILES | IC50 [µM] |
| --- | --- |
| CC1=C(C)[C@H]2[C@H](Cc3c[nH]c4ccccc34)NC(=O)[C@]23C(=O)CCC(=O)[C@H](O)/C(C)=C/[C@@H](C)C/C=C/[C@H]3[C@@H]1O | 8.5 |
| C/C1=C\[C@@H](C)C/C=C/[C@H]2C(=O)[C@@H](C)[C@@H](C)[C@H]3[C@H](Cc4c[nH]c5ccccc45)NC(=O)[C@]32C(=O)/C=C/C(=O)[C@@H]1O | 2.9 |
| CC1=C(O)C(=O)[C@H]2CC(=O)[C@@]34C(=O)N[C@@H](Cc5c[nH]c6ccccc56)[C@@H]3C(C)=C(C)[C@@H](O)[C@@H]4/C=C/C[C@H](C)[C@H]12 | 12.8 |
| C/C1=C\[C@@H](C)C/C=C/[C@H]2[C@@H]3O[C@]3(C)[C@@H](C)[C@H]3[C@H](Cc4c[nH]c5ccccc45)NC(=O)[C@]32C(=O)/C=C/C(=O)[C@@H]1O [CHAETOGLOBOSIN A] | 6.3 |
| CC1=C(C)[C@H]2[C@H](Cc3c[nH]c4ccccc34)NC(=O)[C@]23C(=O)CC[C@H](O)C(=O)/C(C)=C/[C@@H](C)C/C=C/[C@H]3[C@@H]1O [CHAETOGLOBOSIN E] | 3.6 |
| CC1=C(C)[C@H]2[C@H](Cc3c[nH]c4ccccc34)NC(=O)[C@]23C(=O)/C=C/C(=O)[C@H](O)/C(C)=C/[C@@H](C)C/C=C/[C@H]3[C@@H]1O [CHEATOGLOBOSIN B] | 5.2 |
| COc1cc([C@@H]2c3cc4c(cc3[C@@H](O[C@@H]3O[C@@H]5CO[C@@H](C)O[C@H]5[C@H](O)[C@H]3O)[C@H]3COC(=O)[C@H]23)OCO4)cc(OC)c1O [ETOPOSIDE] | 15.8 |

— ChEMBL document CHEMBL4000169, “Overexpression of the Global Regulator LaeA in Chaetomium globosum Leads to the Biosynthesis of Chaetoglobosin Z” (J Nat Prod, 2016)
